Type in all cases: physicochemical
The nature of series [1]: solubility of the PA in water. The procedure:
(§1) After synthesis (see, example 10), the PA of FIG. 1 (characterized by ^1H NMR and MALDI-TOF MS: [M-H]^−1=1333) was treated with dithiothreitol (DTT) at a pH of 8 to reduce all cysteine residues to free thiols. […] Solutions more concentrated than 2.5 mg/ml form birefringent gels in water that are self-supporting upon inversion of the container. […] Negatives were digitized in the Umax PowerLook scanner with resolution 1200 dpi. The average thickness of the PA fibers was determined by two different procedures. First the Fourier transform of the images and following measurements of the distances between the peaks were performed in the NIH Image […] program. The second approach applied was averaging technique based on the cross-correlation method, widely used in single particle reconstruction using the EMAN […] program. For each data set 1200-1300 individual boxes were selected.

Series [2] in a line: pH triggered self-assembly and gelation. Here is the method: as §1
Upon lowering the pH below 4 with HCl the material self-assembles; when the pH is brought back to neutrality with KOH it disassembles. This pH triggered self-assembly and gelation allows the material to respond to its environment and thus may have applications in controlled release of molecules (W. A. Petka, J. L. Hardin, K. P. McGrath, D. Wirtz, D. A. Tirrell, Science 281, 389-392 (1998)).

Series [3] is described as follows: TEM / cryo-TEM of self-assembled fibers. The procedure: as §1
Series [4] is described as follows: stability of fibers in alkaline solution (pH 8). From the text: Following self-assembly of PA molecules into fibers, the cysteine thiol groups were oxidized by treatment with 0.01M iodine. […] Importantly, the covalent capture process of this invention can be easily reversed by treating the fibers with a mild reducing agent such as DTT. […] Together with the controlled self-assembly, reversible cross-linking provides a highly dynamic system which can interconvert between discrete molecules, self-assembled supramolecular fibers, covalently captured polymeric fibers and back again to single small molecules depending solely on the environment in which the material is placed.

Square brackets hold non-standard residues; d marks the D form. Peptide text beside a SMILES is read from it. * marks the point of attachment. Palmitoyl = CCCCCCCCCCCCCCCC(=O)*; pS = N[C@@H](COP(=O)(O)O)C(=O)O

As for `CCCCCCCCCCCCCCCC(=O)N[C@@H](CS)C(=O)N[C@@H](CS)C(=O)N[C@@H](CS)C(=O)N[C@@H](CS)C(=O)NCC(=O)NCC(=O)NCC(=O)N[C@@H](COP(=O)(O)O)C(=O)N[C@@H](CCCNC(=N)N)C(=O)NCC(=O)N[C@@H](CC(=O)O)C(=O)O` [PA 1, CCCCGGGS(P)RGD] (Palmitoyl-CCCCGGG[pS]RGD-OH), in series [1] (solution below pH 4), the solubility upon acidification result is recorded as “rapidly becomes insoluble”. Also, in series [1] (water, pH 8, after DTT reduction of cysteines), the solubility is greater than 50 mg/mL. In addition, the “concentration dependence of fiber formation” value in series [2] (0.01 mg/ml to 50 mg/ml) is “concentration independent”. Moreover, the “behaviour when pH is brought back to neutrality” value in series [2] (KOH) is recorded as “disassembles”. For the same compound, in series [2] (in water), the “concentration at which solutions form self-supporting birefringent gels” value was greater than 2500 µg/mL. Also, in series [2] (pH lowered with HCl), the “pH at which the material self-assembles” value was “below 4”. Also, the fiber diameter stood at 6.0±1 nm in series [3] (TEM, positively and negatively stained dried fibers); 7.6±1 nm in series [3] (cryo-TEM, native hydrated state). The fiber length entry in series [3] (cryo-TEM of gels) is “up to several microns”. Also, the “stability to alkaline solutions” value in series [4] is listed as “disassemble within minutes”.
